Laboratory results published in PubChem BioAssay AID602156 (GNF / Scripps Winzeler lab, 2011).
Where “and” joins values, the source holds several entries; their conditions need not be identical. Identical values can stand only once. Calls of active or inactive are those of the source. No rule for the calls is given here.

Test system: P. yoelii liver stage in HepG2-A16-CD81EGFP, imaging
Assay: Plasmodium liver-stage growth inhibition, dose response, imaging, Malaria Box, P. yoelii, HepG2-A16-CD81EGFP (AID 602156);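 also: infected cells exposed to compound for 48 hours before fixation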

SMILES	IC50
CCc1ccccc1N=C1c2c(cccc2[N+](=O)[O-])C(=O)C1C(C)=O (stereo not drawn)	2030 nM
COc1ccc2nc(SCC(=O)Nc3cccc(NC(=O)CSc4nc5ccc(OC)cc5[nH]4)n3)[nH]c2c1	> 9290 nM (inactive)
O=C(O)c1c[nH]c2cc(N3CCCCCC3)c(F)cc2c1=O	> 10000 nM (inactive)
CCC(Sc1nnc(-c2ccc(C)cc2)c(-c2ccc(C)cc2)n1)C(=O)NCCOC (stereo not drawn)	303 nM
Clc1cccc(Nc2nc(NCc3ccco3)c3ccccc3n2)c1	383 nM
N#Cc1ccc(NC(=O)NC2CC3CCCC(C2)N3CCc2ccccc2)cc1 (stereo not drawn)	497 nM
Cc1ccnc(Nc2nc(-c3ccccn3)cs2)c1	95.6 nM
CCCCCCCn1c2c(c(=N)c3ccccc31)CCC2	76.5 nM
O=C1N(Cc2cc3ccccc3s2)CC2CN(Cc3ccsc3)CCN12 (stereo not drawn)	25.5 nM
c1ccc(CNc2nc(Nc3ccccc3)nc3ccccc23)cc1	153 nM
COc1ccc(C2CC(=O)C3=C(C2)NC(C)=C(C(=O)OC2CCCC2)C3c2cccc(C)c2)cc1OC (stereo not drawn)	779 nM
COc1cc(C(=O)Nc2ccc3nc4n(c(=O)c3c2)CCCCC4)cc(OC)c1OC	> 10000 nM (inactive)
CCC[n+]1cccc2ccc3cccnc3c21	903 nM
CCCc1c(C)[nH]c2ccccc2c1=O	279 nM
C=CCN1C(=Cc2cc[n+](C)cc2)Sc2ccccc21	13.2 nM
CCCn1c(-c2cccc(Br)c2)nc2ccccc21	> 8910 nM (inactive)
c1ccc(-c2ccc(-c3ccccn3)nc2)nc1	39.4 nM
CCCCCCCc1cc(O)c2c3c(c(=O)oc2c1)CCC(C)C3 (stereo not drawn)	247 nM
CC(=O)N(C1=C(N(C)C)C(=O)c2ccccc2C1=O)c1ccc(F)cc1	57.3 nM
O=C(c1cccc([N+](=O)[O-])c1)c1ccc(Cl)c(Cl)c1	3810 nM
Cc1ccc(Nc2cc(C)nc(NCc3ccccc3)n2)c(C)c1	1300 nM
CCN1CCN(c2c(C(=O)c3ccccc3)cnc3cc(OC)c(OC)cc23)CC1	367 nM

SMILES	IC50
COC(OC)C(C)=NNC(N)=S	4.93 nM
CCc1c(C)c(C#N)c2nc3ccccc3n2c1NCc1ccccc1	> 9600 nM (inactive)
N#CCSc1nc2ccccc2c2nc(CCc3c[nH]c4ccccc34)nn12	> 10000 nM (inactive)
CCCCN(CC)CCNC(=O)C1c2ccccc2C(=O)N(Cc2ccc(F)cc2)C1c1ccc(OC)cc1 (stereo not drawn)	89.1 nM
CCCCCc1c(C)c(C#N)c2nc3ccccc3n2c1NCCN(CC)CC	702 nM
CCOC(=O)C1=C(c2ccccc2)N=c2sc(=Cc3cc(C)n(-c4ccc(F)cc4)c3C)c(=O)n2C1c1cccc(OC)c1OC (stereo not drawn)	2450 nM
CCOC(=O)C1=C(C)NC2=C(C(=O)C(C(=O)OCC)C(c3ccc(OC)cc3)C2)C1c1ccc(OC)c(OC)c1 (stereo not drawn)	240 nM
Cc1ccc2nc3nc4c(C)cccc4c(N)c3cc2c1	47.4 nM
CCSc1ccc2ccccc2[n+]1CC	> 10000 nM (inactive)
CCCc1nc2ccc(NC(=O)c3ccco3)cc2c(=O)n1Cc1ccc(-c2ccccc2)cc1	306 nM
CCOC(=O)c1c[nH]c2ccc(OC)cc2c1=O	293 nM and 135 nM
O=C1c2ccccc2C2=Nc3ccccc3SC(c3cccc(F)c3)C12 (stereo not drawn)	162 nM
CCn1c(/C=C/C=C2\N(C)c3ccccc3C2(C)C)[n+](Cc2ccccc2)c2ccccc21	6.76 nM
Cn1ncnc2c(=O)n(C)c(=O)nc1-2	103 nM
Cc1c(Cl)cccc1N1C(=O)C2C3c4ccccc4C(c4ccccc43)C2C1=O (stereo not drawn)	> 10000 nM (inactive)
O=C(Nc1ccc(-c2nc3ccccc3[nH]2)cc1)c1ccc(-c2ccc(Cl)cc2)o1	6650 nM
Cc1ccnc(NC(c2ccc3ccccc3c2)c2ccc3cccnc3c2O)c1 (stereo not drawn)	556 nM
COC(=O)C1=CNC=C(C(=O)OC)C1c1cc(OC)c(OC)c(OC)c1	> 10000 nM (inactive)
CCOC(=O)c1cnc2ccc(OC)cc2c1NCc1cccs1	193 nM
COC(=O)c1cc(NC(=S)NC(=O)c2c(OC)cccc2OC)cc(C(=O)OC)c1	> 10000 nM (inactive)
OC(CNC1CCCCC1)Cn1c2ccccc2c2ccccc21 (stereo not drawn)	3920 nM
O=C1c2ccccc2-n2c1nc1ccccc1c2=O	225 nM

SMILES	IC50
CC1(C)N=C(N)N=C(N)N1c1ccc(Oc2ccc(Cl)cc2)c(Cl)c1	73 nM
Cc1ccc(C2Sc3ccccc3NC3=C2C(=O)c2ccccc23)cc1 (stereo not drawn)	278 nM
CCC(/C=C1\Sc2ccc(OC)cc2N1CCCS(=O)(=O)O)=C\c1sc2ccc(OC)cc2[n+]1CCCS(=O)(=O)O	11.2 nM
CCNC(=O)C1CCN(c2cccc3c2C(=O)N(C2CCCCCCC2)C3=O)CC1	269 nM
FC(F)(F)c1ccccc1NC(=S)N1CCCN(c2nc3ccc(Cl)cc3s2)CC1	1620 nM
COc1ccc(C2CC(=O)C3=C(C2)NC(C)=C(C(=O)OC(C)C)C3c2cccc(C)c2)cc1OC (stereo not drawn)	1840 nM
Cc1cc(C)nc(N=C(N)Nc2cccc(O)c2)n1	152 nM
COc1ccc2nc(C)cc(Nc3ccc(Cl)c(Cl)c3)c2c1	438 nM
COc1ccc2cc3[n+](cc2c1OC)CCc1cc2c(cc1-3)OCO2	548 nM
Cc1ccc2[nH]c(C)c(Br)c(=O)c2c1	252 nM
CN1C(=O)N(C)C(NNC(N)=S)C1NNC(N)=S (stereo not drawn)	15 nM
COc1ccc2[nH]c3ccccc3c(=O)c2c1	135 nM
CCOC(=O)c1cn(CC)c2cc(N(C)CCc3ccc(OC)c(OC)c3)c(F)cc2c1=O	42.1 nM
CCCCSc1oc(C)nc1[P+](c1ccccc1)(c1ccccc1)c1ccccc1	82.1 nM
CC[n+]1cc(-c2ccc(C)cc2)sc1C=C1Sc2ccccc2N1C	4.5 nM
CCCCc1c(C)[nH]c2ccc(Br)cc2c1=O	64.7 nM
CCCCSCC(O)CN1CCCCC1 (stereo not drawn)	> 10000 nM (inactive)
CC1CC(N(C(=O)c2ccc(Cl)cc2Cl)c2ccccc2)c2ccccc2N1C(=O)c1ccc(Cl)cc1 (stereo not drawn)	3640 nM
COc1cc(C(=O)N2N=C(c3c(-c4ccccc4)c4cc(Br)ccc4[nH]c3=O)CC2c2cccc([N+](=O)[O-])c2)cc(OC)c1OC (stereo not drawn)	435 nM
CC1(C)N=C(N)N=C(N)N1c1ccccc1	100 nM
CCCCNC(=O)C1CCC(CN(Cc2c(Cl)cccc2Cl)S(=O)(=O)c2ccc(Br)cc2)CC1 (stereo not drawn)	124 nM
CC(=O)N(C)C1=C(N2CCOCC2)C(=O)c2ccccc2C1=O	229 nM

SMILES	IC50
N=c1c2c(n(Cc3ccc(Cl)cc3)c3c1CCC3)CCC2	91.1 nM
Fc1ccc(Nc2nc(NCc3ccco3)c3ccccc3n2)cc1	74.9 nM
COc1cccc(-c2cncc(-c3cncc(OC)c3)n2)c1	> 10000 nM (inactive)
COc1cncc(-c2cncc(-c3ccc(C)cc3)n2)c1	> 10000 nM (inactive)
COc1ccc(CN2CCOc3ccc(C(C)(O)CN(C)C)cc3C2)cc1C (stereo not drawn)	67.5 nM
O=C(Cc1cccs1)N1CCN(c2ccccn2)CC1	> 10000 nM (inactive)
COC(=O)c1ccc(C2C3=C(CC(c4ccco4)CC3=O)Nc3ccccc3N2C(=O)c2ccccc2)cc1 (stereo not drawn)	> 4780 nM (inactive)
O=C(Nc1ccc(Oc2cccc(Oc3ccc(NC(=O)c4ccc(Br)o4)cc3)c2)cc1)c1ccc(Br)o1	433 nM
Cc1cc(C(=O)Nc2cnn(Cc3ccc(Cl)cc3Cl)c2)no1	335 nM
C=CC[N+]1(CC#Cc2cccc3ccccc23)CCCCC1	908 nM
COc1ccc(NC(=O)COc2ccccc2C(C)C)c(OC)c1	> 10000 nM (inactive)
Cc1ccc(-c2cc3nc4c(c(=O)n3[nH]2)CCCC4)cc1	75.3 nM
CCOC(=O)c1ccc(NC(=O)CSc2nc(NCc3ccccc3)c3ccccc3n2)cc1	38.1 nM
CCN(CC)c1ccc(N=Cc2ccc(Sc3nc4ccccc4s3)o2)cc1	> 10000 nM (inactive)
CCN1C(=Cc2cc[n+](C)cc2)C=Cc2cc(C)ccc21	170 nM
COc1ccc(-c2n(CC(=O)OC3CC(C)CCC3C(C)C)c3ccccc3[n+]2C)cc1 (stereo not drawn)	156 nM
CC1(C)C2CCC(C2)C1(C)NC(=S)NN=Cc1ccccn1 (stereo not drawn)	17.4 nM
Cc1cc(Nc2cccc(F)c2)nc(NCc2ccccc2)n1	1110 nM
COc1cccc(N2C(N)=NC(N)=NC2(C)C)c1	29.5 nM
Cc1ccc(-n2c(-c3ccccc3)cc(C=NNC(=O)c3cccc(-n4c(C)ccc4C)c3)c2-c2ccccc2)cc1	47.9 nM
COc1ccc2c(C)nc(Nc3nc(C)cc(-c4ccccc4)n3)nc2c1	6660 nM
CCN(CC)c1ccc(NC(=O)c2cccs2)cc1	396 nM

SMILES	IC50
NC(Cc1ccccc1)C(=O)N1CCn2c(nc(-c3ccccc3)c2Nc2ccc3c(c2)OCO3)C1 (stereo not drawn)	1.85 nM
Cc1ccc(-c2[nH]n3c(=O)c4c(nc3c2C)CCCC4)cc1	11.3 nM
O=C(c1cc2nc(-c3ccccc3)cc(C(F)(F)F)n2n1)N1CCN(Cc2ccccc2)CC1	> 10000 nM (inactive)
CC1(C)N=C(N)N=C(N)N1c1ccc(Cl)cc1	2.56 nM
CCOc1ccc(N2C(N)=NC(N)=NC2(C)C)cc1	46.8 nM
Cc1cc(OC(C)C(=O)N2CCc3ccccc32)ccc1Cl (stereo not drawn)	776 nM
Nc1ccc(-c2nc3cc(Oc4ccc(Oc5ccc6[nH]c(-c7ccc(N)cc7)nc6c5)cc4)ccc3[nH]2)cc1	319 nM
CC[n+]1c(C=C2C=C(C)OC(C)=C2)sc2ccccc21	245 nM
CSc1nnc(-c2cccc([N+](=O)[O-])c2)n1Cc1ccccc1	2510 nM
Nc1cccc(C(=O)Nc2ccc(Oc3cccc(Oc4ccc(NC(=O)c5cccc(N)c5)cc4)c3)cc2)c1	1760 nM
CCCN(CCC)CCCNc1ccc(C(=O)Nc2ccc(C)c(F)c2)cc1[N+](=O)[O-]	646 nM
Oc1cccc2ccc[n+](CC(O)Cn3c4ccccc4c4ccccc43)c12 (stereo not drawn)	311 nM
CC1(C)N=C(N)N=C(N)N1c1ccc(F)cc1	18.9 nM
CCOc1ccc(N(C(=O)C2COc3ccccc3O2)C(C(=O)NC2CCCCC2)c2cn(C)nc2C)cc1 (stereo not drawn)	> 10000 nM (inactive)
COc1cccc(C(=O)NC(c2ccccc2OC)c2cc(Cl)c3cccnc3c2O)c1 (stereo not drawn)	544 nM
CCCCCCN(C(=O)c1ccc(C(C)(C)C)cc1)C(CC)c1nc2ccccc2c(=O)n1-c1ccc(F)cc1 (stereo not drawn)	> 6910 nM (inactive)
CN(C)c1ccc(C(C=C2C=C(c3ccccc3)C=C(c3ccccc3)O2)=C2C=CC(=[N+](C)C)C=C2)cc1	51.9 nM
N#CC1=C(N)Oc2c3c(c4ccccc4c2C1c1ccc(F)cc1)C(c1ccc(F)cc1)C(C#N)=C(N)O3 (stereo not drawn)	3930 nM
Cc1nc2ccccc2c(=O)n1-c1ccc([N+](=O)[O-])cc1	> 10000 nM (inactive)
COc1cccc(CNC(=O)C2CNCC2c2ccc(C(F)(F)F)cc2)c1 (stereo not drawn)	857 nM
